Test results as given in US11725015B2, “Macrocyclic compound and uses thereof” (President and Fellows of Harvard College, priority 2017, dated 2023).

Columns and labels:
[1] = test system: human squamous cell carcinoma of the head and neck (SCCHN) cell line FaDu; assay: FaDu growth inhibition assay; format: cell-based; settings: 3 days incubation, CellTiter-Glo
Experimental: In this assay, the growth inhibitory activity of test compounds in a human squamous cell carcinoma of the head and neck (SCCHN) cell line FaDu was measured. FaDu cells were maintained in an RPMI-1640 (Wako Pure Chemical Industries, Ltd., 187-02021) medium containing 10% fetal bovine serum (FBS: Nichirei, 12D168), and penicillin and streptomycin in a 5% CO2 incubator (37° C.). To each well of a 96 well plate (Becton, Dickinson and Company, 353219), 75 μL of FaDu cell suspension adjusted to a concentration of 4×10^4 cells/mL with the culture medium was added, and the cells were incubated overnight in a 5% CO2 incubator (37° C.). On the next day, 25 μL of Compound (1) or Halichondrin B in three-fold dilution series suspended in the culture medium was added to each well, and the resultant was incubated for 3 days in a 5% CO2 incubator (37° C.). Then, cell viability was determined by CellTiter-Glo® Luminescent Cell Viability Assay (Promega) with EnVision 2103 Multilabel Reader (Perkin-Elmer, Wellesley, Mass.). Value of the wells containing cells without adding the test compounds was defined as 100% and the value of the wells containing no cells was defined as 0%. The concentration of the test compound necessary for inhibiting the cell growth by 50% (i.e., an IC50 value) was calculated, and shown in Table 1.

[2] = test system: microtubule dynamics in U2OS-EB3-AG osteosarcoma cell line; assay: Cell-based microtubule dynamics assay
Experimental: A cell-based microtubule (MT) dynamics assay was conducted with the U2OS-EB3-AG osteosarcoma cell line, in which the fusion protein of EB3 (a microtubule plus end binding protein) and Azami-Green (EB3-AG) was stably expressed. U2OS-EB3-AG cells were culture in RPMI-1640 medium containing 10% FBS, and penicillin-streptomycin, at 37° C. in a humidified 5% CO2 atmosphere. The MT dynamics in the live cells can be visualized as the movement of the comet-like structure of EB3-AG. U2OS-EB3-AG cells plated on glass-base culture plates (EZVIEW plate, AGC Techno Glass, Japan) were treated with Compound (1) at the indicated concentration and the microtubule dynamics were monitored by time-lapse imaging using fluorescent microscope with 60-fold magnification oil-immersed objective lens (BZ-X710, KEYENCE, Japan). Higher magnification views of the boxed areas were shown in inlets. When treated with Compound (1) at 0.5 nM (IC50 value for antiproliferative activity in U2OS-EB3-AG cells), the comet-like structures became hard to observe at around 60 minutes after the addition of the compound.

[3] = test system: OE21 (human squamous cell carcinoma of the esophagus); assay: In vitro antiproliferative activity, OE21; format: cell-based; settings: OE21, 72 hours
Experimental: The in vitro antiproliferative assays for Compound (1) were conducted using a small panel of cancer cell lines including human squamous cell carcinoma of the esophagus (OE21, TE-8), human adenocarcinoma of the esophagus (OE33), and human uterine sarcoma (MES-SA, MES-SA-Dx5-Rx1). All cell lines were cultured in RPMI-1640 medium containing 10% FBS, and penicillin-streptomycin (culture medium), in a 5% CO2 incubator (37° C.). To each well of a 96 well plate (Becton, Dickinson and Company, 353219), 75 μL of cell suspension adjusted to a concentration of 4×10^4 cells/mL with the culture medium was added, and the cells were incubated overnight in a 5% CO2 incubator (37° C.). On the next day, 25 μL of Compound (1) in three-fold dilution series suspended in the culture medium was added to each well, and the resultant was incubated for 72 hours in a 5% CO2 incubator (37° C.). Then, cell viability was determined by CellTiter-Glo® Luminescent Cell Viability Assay (Promega) with 2013 EnVision™ Multilabel Reader (Perkin-Elmer, Wellesley, Mass.). Value of the wells containing cells without adding the test compounds was defined as 100% and the value of the wells containing no cells was defined as 0%. […] The P-gp susceptibility was calculated as the ratio of the IC50 value in MES-SA-Dx5-Rx1 cells, which overexpress P-gp, to the IC50 value in MES-SA cells.

[4] = test system: AN3CA (human endometrial cancer) xenograft; assay: Antitumor effects in AN3CA endometrial cancer xenograft model in mice as monotherapy; format: in vivo; settings: 180 μg/kg intravenously on Day 1 and Day 8
Experimental: A human endometrial cancer cell line AN3CA, which had been cultured in an E-MEM containing 10% FBS, and penicillin-streptomycin, was adjusted to a concentration of 1.4×10^8 cells/mL with Hanks' Balanced Salt Solution to prepare a cell suspension, and the suspension was mixed with Geltrex® (Thermo Fisher Scientific Inc., #A1413202) in a ratio of 1:1 to prepare a cell suspension in a concentration of 7×10^7 cells/mL. The cell suspension was inoculated in a volume of 100 μL into a subcutaneous part of a right flank of nude mice, 6 weeks of ages (CAnN.Cg-Foxnlnu/CrlCrlj, female, Charles River Laboratories Japan Inc.). Twelve days after cell inoculation (Day 1), the shortest diameter and the longest diameter of a tumor in each mouse were measured by using an electronic digital caliper (Digimatic™ caliper, Mitutoyo Corporation), so as to calculate the volume of the tumor in accordance with the following calculation formulae: Tumor volume (mm^3)=Longest diameter (mm)×Shortest diameter (mm)×Shortest diameter (mm)/2 Relative tumor volume (RTV)=Tumor volume (day X)/Tumor volume (the first day)
On the basis of the volumes of tumors obtained on Day 1, the mice were grouped such that averages of the tumor volumes were substantially equal among the groups. The experiment was conducted on groups each consisting of five mice. […]

SMILES: C=C1C[C@@H]2CC[C@@]34C[C@H]5O[C@H]6[C@@H](O3)[C@H]3O[C@H](CC[C@@H]3O[C@H]6C5O4)CC(=O)O[C@@H]3[C@@H](C)[C@@H]4O[C@@H]5C[C@]6(C[C@@H]7O[C@]8(C[C@H](C)[C@@H]9O[C@H](CN)[C@H](O)C[C@@H]9O8)C[C@H](C)[C@@H]7O6)O[C@@H]5C[C@@H]4O[C@H]3C[C@H]3O[C@@H](CC[C@@H]1O2)C[C@@H](C)C3=C [Compound (1)]
- IC50 [1]: 0.0714 nM
- effect on microtubule (MT) dynamics [2]: had the ability to suppress the MT dynamics
- time at which comet-like structures of EB3-AG became hard to observe ([2]; 0.5 nM, after the addition of the compound): around 60 minutes
- antiproliferative activity [3]: potent antiproliferative agent
- antitumor activity [4]: tumor regression
